Values joined by “and” are separate entries in the source; they are usually repeats but may differ in a detail not shown here. Equal entries are not always repeated. Toxic doses and inconclusive results are not listed. How the source made its calls: active means survival T/C of 150% or more; inactive means T/C below 125% in these data.
Test system: P388 leukemia ip, CD2F1 mice, survival T/C
Test: NCI In Vivo Anticancer Drug Screen. Data for tumor model P388 Leukemia (intraperitoneal) in CD2F1 (CDF1) mice
Details: endpoint: median survival time, higher = longer survival
How it was run: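 Mice carrying the transplanted tumor received test compound or vehicle. Survival was recorded in each group, and the value is the treated-group measurement divided by that of the vehicle-treated control group.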

[1] = dose: 12.5 mg/kg/injection, schedule: Q01DX005 (ip), vehicle: Klucel (hydroxypropylcellulose) (HPC)
[2] = dose: 25.0 mg/kg/injection, schedule: Q01DX005 (ip), vehicle: Klucel (hydroxypropylcellulose) (HPC)
[3] = dose: 50.0 mg/kg/injection, schedule: Q01DX005 (ip), vehicle: Klucel (hydroxypropylcellulose) (HPC)
[4] = dose: 100.0 mg/kg/injection, schedule: Q01DX005 (ip), vehicle: Klucel (hydroxypropylcellulose) (HPC)
[5] = dose: 200.0 mg/kg/injection, schedule: Q01DX005 (ip), vehicle: Klucel (hydroxypropylcellulose) (HPC)
[6] = dose: 50.0 mg/kg/injection, schedule: Q01DX005 (ip), vehicle: saline with Tween-80
[7] = dose: 100.0 mg/kg/injection, schedule: Q01DX005 (ip), vehicle: saline with Tween-80
[8] = dose: 200.0 mg/kg/injection, schedule: Q01DX005 (ip), vehicle: saline with Tween-80
[9] = dose: 100.0 mg/kg/injection, schedule: Q04DX003 (ip), vehicle: Klucel (hydroxypropylcellulose) (HPC)
[10] = dose: 25.0 mg/kg/injection, schedule: Q01DX009 (ip), vehicle: saline with Tween-80
[11] = dose: 50.0 mg/kg/injection, schedule: Q01DX009 (ip), vehicle: saline with Tween-80

Measured: T/C

CC1(C)CN(c2ccccc2)N(CO)C1=O
inactive: dose: 6.25 mg/kg/injection, schedule: Q04DX003 (ip), vehicle: saline 101 % of control | dose: 12.5 mg/kg/injection, schedule: Q04DX003 (ip), vehicle: saline 109 % of control

C[C@]12C=CC(=O)C=C1CC[C@@H]1[C@@H]2C(=O)C[C@@]2(C)[C@H]1CC[C@]2(O)C(=O)COC(=O)CSc1c2ccccc2nc2ccccc12
inactive: [1] 103 % of control | [2] 100 % of control | [3] 104 % of control and 107 % of control | [4] 107 % of control | [5] 102 % of control

c1ccc2c(c1)Cc1ccnnc1-2
inactive: [6] 103 % of control | [7] 103 % of control | [8] 92 % of control

Cc1cc2cc(Cl)c(CN)cc2[nH]1
inactive: dose: 25.0 mg/kg/injection, schedule: Q04DX003 (ip), vehicle: Klucel (hydroxypropylcellulose) (HPC) 97 % of control | dose: 50.0 mg/kg/injection, schedule: Q04DX003 (ip), vehicle: Klucel (hydroxypropylcellulose) (HPC) 102 % of control | [9] 105 % of control and 107 % of control

CCCCC[CH2][Sn]([CH2]C)([CH2]C)[O]C(C)=O
inactive: dose: 0.5 mg/kg/injection, schedule: Q01DX009 (ip), vehicle: saline with Tween-80 109 % of control | dose: 1.0 mg/kg/injection, schedule: Q01DX009 (ip), vehicle: saline with Tween-80 113 % of control | dose: 2.0 mg/kg/injection, schedule: Q01DX009 (ip), vehicle: saline with Tween-80 109 % of control

C[C@]12CC[C@H]3[C@@H](CC=C4C[C@@H](O)CC[C@@]43C)[C@@H]1CC[C@@H]2N(CCO)CCO
inactive: [3] 96 % of control | [4] 100 % of control | [5] 97 % of control

CC(=O)SCC[n+]1cc2ccccc2c2ccccc21
inactive: dose: 3.12 mg/kg/injection, schedule: Q01DX005 (ip), vehicle: Klucel (hydroxypropylcellulose) (HPC) 95 % of control | dose: 6.25 mg/kg/injection, schedule: Q01DX005 (ip), vehicle: Klucel (hydroxypropylcellulose) (HPC) 99 % of control | [1] 105 % of control and 108 % of control | [2] 100 % of control | [3] 115 % of control and 118 % of control

COC(=O)C([NH-])c1ccccc1.COC(=O)C([NH-])c1ccccc1.[Cl][Pd][Cl] (configuration not stated)
inactive: dose: 100.0 mg/kg/injection, schedule: Q04DX003 (ip), vehicle: saline 108 % of control | dose: 200.0 mg/kg/injection, schedule: Q04DX003 (ip), vehicle: saline 104 % of control | dose: 400.0 mg/kg/injection, schedule: Q04DX003 (ip), vehicle: saline 103 % of control

CS/C(=C(\C#N)C(N)=O)N1CC1
inactive: dose: 25.0 mg/kg/injection, schedule: Q04DX002 (ip), vehicle: DMSO 94 % of control | dose: 50.0 mg/kg/injection, schedule: Q04DX002 (ip), vehicle: DMSO 100 % of control | dose: 100.0 mg/kg/injection, schedule: Q04DX002 (ip), vehicle: DMSO 102 % of control and 95 % of control | dose: 200.0 mg/kg/injection, schedule: Q04DX002 (ip), vehicle: DMSO 100 % of control

c1ccc2cc3c4c(ccc3cc2c1)CCCCCC4
inactive: dose: 12.5 mg/kg/injection, schedule: Q01DX009 (ip), vehicle: saline with Tween-80 86 % of control | [10] 112 % of control | [11] 105 % of control

C#CC(C)(CC(C)C)OCCN(CC)CC (configuration not stated)
inactive: dose: 6.25 mg/kg/injection, schedule: Q01DX005 (ip), vehicle: saline with Tween-80 106 % of control | dose: 12.5 mg/kg/injection, schedule: Q01DX005 (ip), vehicle: saline with Tween-80 104 % of control | dose: 25.0 mg/kg/injection, schedule: Q01DX005 (ip), vehicle: saline with Tween-80 104 % of control

C=C(C)C(=NC(C)(C)C)Nc1ccc(Cl)cc1
inactive: [1] 104 % of control and 106 % of control | [2] 106 % of control and 109 % of control | [10] 98 % of control and 100 % of control | [3] 110 % of control and 116 % of control and 123 % of control | [11] 100 % of control and 102 % of control and 109 % of control | [4] 112 % of control and 116 % of control and 120 % of control | dose: 100.0 mg/kg/injection, schedule: Q01DX009 (ip), vehicle: saline with Tween-80 109 % of control and 111 % of control and 119 % of control | dose: 200.0 mg/kg/injection, schedule: Q01DX009 (ip), vehicle: saline with Tween-80 118 % of control

CC1=CC(=O)C(O)C2(C)C1CC1OC(=O)C=C3C(C)(C4OC(=O)CC4CO)CC(O)C2C31C (configuration not stated)
inactive: dose: 2.5 mg/kg/injection, schedule: Q01DX009 (ip), vehicle: saline + alcohol 92 % of control | dose: 5.0 mg/kg/injection, schedule: Q01DX009 (ip), vehicle: saline + alcohol 98 % of control | dose: 10.0 mg/kg/injection, schedule: Q01DX009 (ip), vehicle: saline + alcohol 108 % of control | dose: 20.0 mg/kg/injection, schedule: Q01DX009 (ip), vehicle: saline + alcohol 101 % of control

CC(C)(C)SC(=O)C1(C(O)c2ccccc2)CC1 (configuration not stated)
inactive: [9] 106 % of control | dose: 200.0 mg/kg/injection, schedule: Q04DX003 (ip), vehicle: Klucel (hydroxypropylcellulose) (HPC) 115 % of control | dose: 400.0 mg/kg/injection, schedule: Q04DX003 (ip), vehicle: Klucel (hydroxypropylcellulose) (HPC) 112 % of control

CS(=O)(=O)N1OC1c1ccccc1 (configuration not stated)
inactive: dose: 60.0 mg/kg/injection, schedule: Q01DX005 (ip), vehicle: Klucel (hydroxypropylcellulose) (HPC) 95 % of control | dose: 120.0 mg/kg/injection, schedule: Q01DX005 (ip), vehicle: Klucel (hydroxypropylcellulose) (HPC) 100 % of control

O=C1NC(O)c2cccc(Cl)c2O1 (configuration not stated)
inactive: [6] 102 % of control | [7] 102 % of control | [8] 107 % of control

COC(=O)[C@@]12OC[C@]34[C@H]([C@@H](O)[C@@H]1O)[C@@]1(C)CC(=O)C(OC(=O)CC(=O)OC5=C(C)[C@@H]6C[C@H]7OC(=O)[C@H](OC(=O)C=C(C)C)[C@H]8[C@]9(C(=O)OC)OC[C@]78[C@H]([C@@H](O)[C@@H]9O)[C@@]6(C)CC5=O)=C(C)[C@@H]1C[C@H]3OC(=O)[C@H](OC(=O)C=C(C)C)[C@@H]24
inactive: dose: 0.3 mg/kg/injection, schedule: Q01DX009 (ip), vehicle: saline with Tween-80 106 % of control | dose: 0.6 mg/kg/injection, schedule: Q01DX009 (ip), vehicle: saline with Tween-80 107 % of control | dose: 0.9 mg/kg/injection, schedule: Q01DX009 (ip), vehicle: saline with Tween-80 113 % of control

COc1cccc(C(=O)CCN(C)C)c1
inactive: dose: 50.0 mg/kg/injection, schedule: Q01DX009 (ip), vehicle: saline 98 % of control and 106 % of control | dose: 100.0 mg/kg/injection, schedule: Q01DX009 (ip), vehicle: saline 99 % of control and 105 % of control

CC(C)(OC(=O)c1ccc([N+](=O)[O-])cc1)C(=O)O
inactive: dose: 50.0 mg/kg/injection, schedule: Q01DX009 (ip), vehicle: Klucel (hydroxypropylcellulose) (HPC) 99 % of control | dose: 100.0 mg/kg/injection, schedule: Q01DX009 (ip), vehicle: Klucel (hydroxypropylcellulose) (HPC) 98 % of control | dose: 200.0 mg/kg/injection, schedule: Q01DX009 (ip), vehicle: Klucel (hydroxypropylcellulose) (HPC) 98 % of control

C[N+](C)(Cn1ncc2ccc([N+](=O)[O-])cc21)Cn1ncc2ccc([N+](=O)[O-])cc21
inactive: dose: 12.5 mg/kg/injection, schedule: Q04DX003 (ip), vehicle: saline with Tween-80 100 % of control | dose: 25.0 mg/kg/injection, schedule: Q04DX003 (ip), vehicle: saline with Tween-80 97 % of control | dose: 50.0 mg/kg/injection, schedule: Q04DX003 (ip), vehicle: saline with Tween-80 92 % of control | dose: 100.0 mg/kg/injection, schedule: Q04DX003 (ip), vehicle: saline with Tween-80 96 % of control

COCON=C(C)C
inactive: dose: 100.0 mg/kg/injection, schedule: Q01DX001 (ip), vehicle: saline 100 % of control | dose: 200.0 mg/kg/injection, schedule: Q01DX001 (ip), vehicle: saline 99 % of control | dose: 400.0 mg/kg/injection, schedule: Q01DX001 (ip), vehicle: saline 98 % of control

Source: PubChem BioAssay AID330 (DTP/NCI, 2004)
